# ± gives the expanded uncertainty stated by the source.
# Key:
# [1] = Molar enthalpy of transition or fusion; settings: Crystal; DSC
# [2] = Crystal; DTA
smiles,measurement,setting,value
"CC1=CC(=O)c2ccccc2C1=O [2-methyl-1,4-naphthalenedione]",Molar enthalpy of transition or fusion,[1],4.86 ± 0.22 kcal/mol
same,Normal melting temperature,[2],107.00 ± 1.1 °C

# — the NIST ThermoML archive (doi:10.1016/j.fluid.2015.09.019)
